Experimental data taken from patent publication US20230286975A1, “IMPROVED METHOD FOR THE PRODUCTION OF LYSERGIC ACID DIETHYLAMIDE (LSD) AND NOVEL DERIVATIVES THEREOF” (COMPASS […], priority 2020, published 2023).

Columns and labels:
[1] = molecular target: T1, Human recombinant serotonin 5-HT2A receptors (Homo sapiens, UniProt P28223); experiment: 5-HT2A receptor radioligand binding inhibition ([3H]Ketanserin); conditions: for interaction at 5-HT2A receptor, in words: 10 μM, % inhibition greater than 50% interpreted as potentially significant interaction; for selectivity as ligand of the 5-HT2A receptor, in words: conclusion from % inhibition at 10 μM over ten receptors; for inhibition at 10 µM: screened at 10 μM, mean of two replicates
T1 construct: expressed in transfected cells; host or cells: CHO-K1
Method: (§1) Four novel LSD derivatives according to the present invention (referred to as “Compound 1”, “Compound 2”, “Compound 3”, and “Compound 4”; structures depicted below) were screened at 10 μM at key receptors of interest in order to determine % binding inhibition. Targets were selected due to prior evidence that LSD binds these targets with moderate or high affinities in vitro, as well as their functional significance in the context of human health.
Human recombinant serotonin 5-HT2A receptors expressed in CHO-K1 cells were used in modified Tris-HCl buffer pH 7.4. A 30 μg aliquot of membrane protein was incubated with 0.5 nM [^3H]Ketanserin for 60 minutes at 25° C. Non-specific binding was estimated in the presence of 1 μM Mianserin. Receptors were filtered and washed, the filters were then counted to determine [^3H]Ketanserin specifically bound. Test compounds were screened at 10 μM.
(§2) Experimental results were expressed as a percent of control specific binding, via the equation: […]
(§3) For each target, data from two experimental replicates were averaged to generate a mean % inhibition.

[2] = molecular target: T2, Human recombinant serotonin 5-HT2B receptor (Homo sapiens, UniProt P41595); experiment: 5-HT2B receptor radioligand binding inhibition ([3H]LSD); conditions: for inhibition at 10 µM: screened at 10 μM, mean of two replicates
T2 construct: expressed in transfected cells; host or cells: CHO-K1
Method: as §1
Human recombinant serotonin 5-HT2B receptor expressed in CHO-K1 cells were used to prepare membranes in modified Tris-HCl buffer pH 7.4. A 30 μg aliquot of membrane protein was incubated with 1.2 nM [^3H]LSD for 60 minutes at 37° C. Non-specific binding was estimated in the presence of 10 μM serotonin. Membranes were filtered and washed, the filters were then counted to determine [^3H]LSD specifically bound. Test compounds were screened at 10 μM.
as §2, §3

[3] = molecular target: T3, human recombinant serotonin 5-HT2c receptors (Homo sapiens, UniProt P28335); experiment: 5-HT2C receptor radioligand binding inhibition ([3H]Mesulergine); conditions: for interaction at 5-HT2C receptor, in words: 10 μM, % inhibition greater than 50% interpreted as potentially significant interaction; for inhibition at 10 µM: screened at 10 μM, mean of two replicates
T3 construct: expressed in transfected cells; host or cells: CHO-K1 (stably transfected)
T3 sequence (P28335 33-458): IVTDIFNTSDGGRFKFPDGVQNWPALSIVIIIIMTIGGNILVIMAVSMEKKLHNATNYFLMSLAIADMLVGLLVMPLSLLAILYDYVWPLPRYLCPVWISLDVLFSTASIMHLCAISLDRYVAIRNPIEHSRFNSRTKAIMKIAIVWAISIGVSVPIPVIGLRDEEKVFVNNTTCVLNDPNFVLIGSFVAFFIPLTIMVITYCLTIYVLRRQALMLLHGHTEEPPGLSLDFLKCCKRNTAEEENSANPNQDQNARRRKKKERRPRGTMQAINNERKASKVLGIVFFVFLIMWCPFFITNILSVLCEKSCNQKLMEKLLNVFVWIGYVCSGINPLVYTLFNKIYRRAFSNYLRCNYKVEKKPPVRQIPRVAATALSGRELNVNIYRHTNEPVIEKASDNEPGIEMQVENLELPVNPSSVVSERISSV
Method: as §1
CHO-K1 cells stably transfected with a plasmid encoding the human recombinant serotonin 5-HT2c receptors were used to prepare membranes in modified Tris-HCl buffer pH 7.4. A 3.2 μg aliquot of membrane protein was incubated with 1.0 nM [^3H]Mesulergine for 60 minutes at 25° C. Non-specific binding was estimated in the presence of 1 μM Mianserin. Membranes were filtered and washed, the filters were then counted to determine [^3H]Mesulergine specifically bound. Test compounds were screened at 10 μM.
as §2, §3

[4] = molecular target: T4, Human recombinant serotonin 5-HT1A receptors (Homo sapiens, UniProt P08908); experiment: 5-HT1A receptor radioligand binding inhibition ([3H]8-OH-DPAT); conditions: for interaction at 5-HT1A receptor, in words: 10 μM, % inhibition greater than 50% interpreted as potentially significant interaction; for inhibition at 10 µM: screened at 10 μM, mean of two replicates
T4 construct: expressed in transfected cells; host or cells: CHO-K1
T4 sequence (P08908 1-422): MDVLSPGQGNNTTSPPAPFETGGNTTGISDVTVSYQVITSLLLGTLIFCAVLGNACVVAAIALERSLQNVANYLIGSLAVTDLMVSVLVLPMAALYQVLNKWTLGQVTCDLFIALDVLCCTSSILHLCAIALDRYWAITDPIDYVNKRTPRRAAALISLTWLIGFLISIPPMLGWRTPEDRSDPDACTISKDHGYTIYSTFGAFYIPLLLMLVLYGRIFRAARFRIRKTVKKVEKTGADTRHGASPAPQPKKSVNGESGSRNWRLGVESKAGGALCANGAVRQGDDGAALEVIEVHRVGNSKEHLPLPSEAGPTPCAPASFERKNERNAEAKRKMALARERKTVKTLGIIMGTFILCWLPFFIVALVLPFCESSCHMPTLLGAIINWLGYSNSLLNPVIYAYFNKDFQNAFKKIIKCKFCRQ
Method: as §1
Human recombinant serotonin 5-HT1A receptors expressed in CHO-K1 cells were used in modified Tris-HCl buffer pH 7.4. An 8 μg aliquot of membrane protein was incubated with 1.5 nM [^3H]8-OH-DPAT for 60 minutes at 25° C. Non-specific binding was estimated in the presence of 10 μM metergoline. Receptors were filtered and washed, the filters were then counted to determine [^3H]8-OH-DPAT specifically bound. Test compounds were screened at 10 μM.
as §2, §3

[5] = molecular target: T5, Human recombinant dopamine D2S receptors (Homo sapiens, UniProt P14416); experiment: D2S receptor radioligand binding inhibition ([3H]Spiperone); conditions: for inhibition at 10 µM: screened at 10 μM, mean of two replicates
T5 construct: expressed in transfected cells; host or cells: CHO
Method: as §1
(§4) Human recombinant dopamine D2S receptors expressed in CHO cells were used in modified Tris-HCl buffer pH 7.4. A 15 μg aliquot was incubated with 0.16 nM [^3H]Spiperone for 120 minutes at 25° C. Non-specific binding was estimated in the presence of 10 μM haloperidol. Receptors were filtered and washed, the filters were then counted to determine [^3H]Spiperone specifically bound. Test compounds were screened at 10 μM.
as §2, §3

[6] = molecular target: T6, Human recombinant dopamine D2L receptor (Homo sapiens, UniProt P14416); experiment: D2L receptor radioligand binding inhibition ([3H]Spiperone); conditions: for inhibition at 10 µM: screened at 10 μM, mean of two replicates
T6 construct: expressed in transfected cells; host or cells: CHO
Method: as §1
as §4, with “D2L receptor” for “D2S receptors”, “20” for “15”, “Receptor proteins” for “Receptors”
as §2, §3

[7] = molecular target: T7, Human recombinant dopamine D1 receptors (Homo sapiens, UniProt P21728); experiment: D1 receptor radioligand binding inhibition ([3H]SCH-23390); conditions: for inhibition at 10 µM: screened at 10 μM, mean of two replicates
T7 construct: expressed in transfected cells; host or cells: CHO
Method: as §1
as §4, with “D1” for “D2S”, “20” for “15”, “1.4” for “0.16”, “[^3H]SCH-23390” for “[^3H]Spiperone”, “37°” for “25°”, “(+)-butaclamol.” for “haloperidol.”
as §2, §3

[8] = molecular target: T8, Human recombinant dopamine D3 receptors (Homo sapiens, UniProt P35462); experiment: D3 receptor radioligand binding inhibition ([3H]Spiperone); conditions: for inhibition at 10 µM: screened at 10 μM, mean of two replicates
T8 construct: expressed in transfected cells; host or cells: CHO
Method: as §1
as §4, with “dopamine D3” for “dopamine D2S”, “A 10” for “A 15”, “with 0.7” for “with 0.16”, “at 37°” for “at 25°”, “of 25” for “of 10”, “μM S(−)-sulpiride.” for “μM haloperidol.”
as §2, §3

[9] = test system: human dopamine D4.7 receptor; experiment: D4.7 receptor radioligand binding inhibition ([3H]Spiperone); conditions: for interaction at D4.7 receptor, in words: 10 μM, % inhibition greater than 50% interpreted as potentially significant interaction; for % inhibition, D4.7: screened at 10 μM, mean of two replicates
Method: as §1
CHO-K1 cells stably transfected with a plasmid encoding the human dopamine D4.7 receptor were used to prepare membranes in modified Tris-HCl buffer pH 7.4. A 60 μg aliquot of membrane was incubated with 1.5 nM [^3H]Spiperone for 120 minutes at 25° C. Non-specific binding was estimated in the presence of 10 μM haloperidol. Membranes were filtered and washed, the filters were then counted to determine [^3H]Spiperone specifically bound. Test compounds were screened at 10 μM.
as §2, §3

[10] = molecular target: T9, Human recombinant adenosine A2A receptors (Homo sapiens, UniProt P29274); experiment: A2A receptor radioligand binding inhibition ([3H]CGS-21680); conditions: for interaction at A2A receptor, in words: 10 μM, % inhibition greater than 50% interpreted as potentially significant interaction; for inhibition at 10 µM: screened at 10 μM, mean of two replicates
T9 construct: expressed in transfected cells; host or cells: HEK-293
Method: as §1
Human recombinant adenosine A2A receptors expressed in human HEK-293 cells were used in modified Tris-HCl buffer pH 7.4. A 15 μg aliquot was incubated with 50 nM [^3H]CGS-21680 for 90 minutes at 25° C. Non-specific binding was estimated in the presence of 50 μM NECA. Receptor were filtered and washed, the filters were then counted to determine [^3H]CGS-21680 specifically bound. Test compounds were screened at 10 μM.
as §2, §3

[11] = 10 μM, % inhibition greater than 50% interpreted as potentially significant interaction

T2 sequence (P41595 whole entry): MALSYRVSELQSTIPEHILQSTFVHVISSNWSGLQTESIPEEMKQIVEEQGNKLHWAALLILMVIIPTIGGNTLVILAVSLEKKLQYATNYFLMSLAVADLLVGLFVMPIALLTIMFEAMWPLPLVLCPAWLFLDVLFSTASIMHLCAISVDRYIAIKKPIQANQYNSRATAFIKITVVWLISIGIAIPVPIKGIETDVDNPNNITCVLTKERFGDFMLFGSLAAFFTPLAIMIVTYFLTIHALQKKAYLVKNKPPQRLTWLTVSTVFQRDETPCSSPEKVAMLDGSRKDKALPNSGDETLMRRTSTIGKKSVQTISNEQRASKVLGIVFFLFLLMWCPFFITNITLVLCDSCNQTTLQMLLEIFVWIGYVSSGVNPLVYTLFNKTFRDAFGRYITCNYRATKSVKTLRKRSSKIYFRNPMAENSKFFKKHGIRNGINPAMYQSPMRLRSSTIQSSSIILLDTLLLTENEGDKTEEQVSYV
T9 sequence (P29274 whole entry): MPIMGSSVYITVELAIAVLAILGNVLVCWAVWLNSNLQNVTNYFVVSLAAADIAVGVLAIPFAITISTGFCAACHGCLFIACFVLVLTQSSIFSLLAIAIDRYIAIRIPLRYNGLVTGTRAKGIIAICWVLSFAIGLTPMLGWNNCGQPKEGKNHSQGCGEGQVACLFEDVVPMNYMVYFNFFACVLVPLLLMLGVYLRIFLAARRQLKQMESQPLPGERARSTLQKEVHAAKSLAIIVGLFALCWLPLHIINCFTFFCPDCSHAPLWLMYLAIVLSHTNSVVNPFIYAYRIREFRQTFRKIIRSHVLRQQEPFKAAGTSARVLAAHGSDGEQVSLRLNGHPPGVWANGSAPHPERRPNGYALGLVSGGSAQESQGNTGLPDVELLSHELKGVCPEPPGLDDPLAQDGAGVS
T6 sequence (P14416 whole entry): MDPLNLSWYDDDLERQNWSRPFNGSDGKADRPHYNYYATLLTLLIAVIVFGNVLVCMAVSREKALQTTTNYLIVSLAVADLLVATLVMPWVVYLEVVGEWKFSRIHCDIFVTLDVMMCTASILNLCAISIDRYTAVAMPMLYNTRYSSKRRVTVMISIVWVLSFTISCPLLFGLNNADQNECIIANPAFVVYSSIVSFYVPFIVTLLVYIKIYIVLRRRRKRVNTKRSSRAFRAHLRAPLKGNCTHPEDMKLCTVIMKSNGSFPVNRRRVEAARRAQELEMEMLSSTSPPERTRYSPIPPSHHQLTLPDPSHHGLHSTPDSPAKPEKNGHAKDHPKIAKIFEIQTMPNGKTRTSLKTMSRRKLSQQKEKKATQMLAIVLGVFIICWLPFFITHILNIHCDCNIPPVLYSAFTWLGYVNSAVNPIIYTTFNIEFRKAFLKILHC
T7 sequence (P21728 whole entry): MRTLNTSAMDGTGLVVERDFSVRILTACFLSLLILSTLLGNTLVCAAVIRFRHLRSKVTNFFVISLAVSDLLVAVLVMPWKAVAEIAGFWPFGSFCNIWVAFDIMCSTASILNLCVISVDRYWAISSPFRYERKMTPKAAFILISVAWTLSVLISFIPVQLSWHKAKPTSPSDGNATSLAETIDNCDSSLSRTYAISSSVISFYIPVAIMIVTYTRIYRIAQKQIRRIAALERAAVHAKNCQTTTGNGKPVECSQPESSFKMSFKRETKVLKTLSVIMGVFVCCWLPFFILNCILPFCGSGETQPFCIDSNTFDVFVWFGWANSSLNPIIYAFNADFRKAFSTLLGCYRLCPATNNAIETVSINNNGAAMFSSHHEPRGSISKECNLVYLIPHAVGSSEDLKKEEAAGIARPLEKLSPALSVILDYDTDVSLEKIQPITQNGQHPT
T8 sequence (P35462 whole entry): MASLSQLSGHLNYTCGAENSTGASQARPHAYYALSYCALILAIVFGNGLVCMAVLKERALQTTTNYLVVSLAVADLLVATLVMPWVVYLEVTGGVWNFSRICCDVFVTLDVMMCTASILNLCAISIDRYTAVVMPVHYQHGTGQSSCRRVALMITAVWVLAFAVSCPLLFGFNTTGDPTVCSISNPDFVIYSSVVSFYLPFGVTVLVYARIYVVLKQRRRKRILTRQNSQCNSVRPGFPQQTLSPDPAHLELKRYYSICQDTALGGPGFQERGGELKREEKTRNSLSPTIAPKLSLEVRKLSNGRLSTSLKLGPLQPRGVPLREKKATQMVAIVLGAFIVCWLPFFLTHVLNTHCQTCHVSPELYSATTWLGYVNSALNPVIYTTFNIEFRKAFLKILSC
T5 sequence (P14416 1-414 isoform P14416-2): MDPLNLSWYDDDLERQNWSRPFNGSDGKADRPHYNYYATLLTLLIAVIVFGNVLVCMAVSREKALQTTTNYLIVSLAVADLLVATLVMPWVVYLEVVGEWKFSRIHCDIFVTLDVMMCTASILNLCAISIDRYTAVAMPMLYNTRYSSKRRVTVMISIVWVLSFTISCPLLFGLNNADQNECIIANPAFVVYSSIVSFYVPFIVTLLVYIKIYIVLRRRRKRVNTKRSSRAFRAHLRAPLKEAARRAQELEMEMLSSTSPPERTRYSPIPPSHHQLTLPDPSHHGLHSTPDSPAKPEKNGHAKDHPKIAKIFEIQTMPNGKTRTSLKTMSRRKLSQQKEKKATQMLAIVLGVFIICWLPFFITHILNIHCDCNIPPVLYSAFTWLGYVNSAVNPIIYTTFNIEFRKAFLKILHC
T1 sequence (P28223 whole entry): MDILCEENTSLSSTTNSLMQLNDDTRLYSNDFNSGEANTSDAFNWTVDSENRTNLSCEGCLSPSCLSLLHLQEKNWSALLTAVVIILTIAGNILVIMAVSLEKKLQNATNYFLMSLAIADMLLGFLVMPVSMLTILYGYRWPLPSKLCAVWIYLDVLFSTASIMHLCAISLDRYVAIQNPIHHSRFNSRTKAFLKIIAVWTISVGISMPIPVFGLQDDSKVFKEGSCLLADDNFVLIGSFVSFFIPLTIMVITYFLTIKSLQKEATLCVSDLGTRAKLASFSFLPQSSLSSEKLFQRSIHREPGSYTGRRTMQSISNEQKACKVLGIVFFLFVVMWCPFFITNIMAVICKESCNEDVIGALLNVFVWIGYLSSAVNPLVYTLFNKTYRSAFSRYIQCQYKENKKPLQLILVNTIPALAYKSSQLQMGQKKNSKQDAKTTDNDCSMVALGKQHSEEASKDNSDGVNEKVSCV

Structure (SMILES)	interaction at 5-HT2A receptor, in words [1]	selectivity as ligand of the 5-HT2A receptor, in words [1]	inhibition at 10 µM [1]	inhibition at 10 µM [2]	interaction at 5-HT2C receptor, in words [3]	inhibition at 10 µM [3]	interaction at 5-HT1A receptor, in words [4]	inhibition at 10 µM [4]	inhibition at 10 µM [5]	inhibition at 10 µM [6]	inhibition at 10 µM [7]	inhibition at 10 µM [8]	interaction at D4.7 receptor, in words [9]	% inhibition, D4.7 [9]	interaction at A2A receptor, in words [10]	inhibition at 10 µM [10]	also measured
CN1CC(C(=O)NCC(F)(F)F)C=C2c3cccc4[nH]cc(c34)CC21 (centres unmarked) [Compound 3, lysergic acid mono-(trifluoroethyl)amide]	significant interaction	advantageously selective ligands of the 5-HT2A receptor	93.1%	94.9%	significant interaction	89.4%	significant interaction	101%	64.2%	63.1%	53.8%	94.7%	no significant interaction	20.1%	no significant interaction	-2%	interaction at 5-HT2B receptor, in words [2, 11]: significant interaction; D3 % inhibition compared with other dopamine receptors, in words ([8]; 10 μM, may indicate greater selectivity for D3): higher % inhibition than at other dopamine receptors
CCN(CC)C(=O)C1C=C2c3cccc4[nH]cc(c34)CC2N(CCF)C1 (centres unmarked) [Compound 2, 6-(2-mono-fluoro-ethyl)-6-nor-lysergic acid diethylamide]	very high % inhibition	advantageously selective ligands of the 5-HT2A receptor	95.7%	90.5%	no significant interaction	4.8%	very high % inhibition	100%	0.6%	7.9%	4.3%	14.2%	no significant interaction	2.8%	no significant interaction	-2.5%	interaction at D2S receptor, in words [5, 11]: no significant interaction; interaction at D2L receptor, in words [6, 11]: no significant interaction; interaction at D1 receptor, in words [7, 11]: no significant interaction; interaction at D3 receptor, in words [8, 11]: no significant interaction
CN1CC(C(=O)N2CC3(COC3)C2)C=C2c3cccc4[nH]cc(c34)CC21 (centres unmarked) [Compound 1, 2-oxa-6-azaspiro[3.3]heptyl-lysergic acid amide]			95.3%	96.8%		85.8%		96.3%	83.1%	78.8%	85.6%	94.5%				-12.3%	
CCN(CCF)C(=O)C1C=C2c3cccc4[nH]cc(c34)CC2N(C)C1 (centres unmarked) [Compound 4, lysergic acid monofluoro diethylamide]		advantageously selective ligands of the 5-HT2A receptor	97.1%	97.9%		100%		100%	92.1%	92.7%	97.1%	97.7%		71.6%	no significant interaction	12.3%	
